Test results: paper PMC10725991, “Kaempferol is a novel antiviral agent against channel catfish virus infection through blocking viral attachment and penetration in vitro” (Frontiers in Veterinary Science, 2023)

Assays:
[1] = test system: CCV (strain VR-665) in CCO cells; assay: Anti-CCV replication assay of kaempferol, RT-qPCR; format: cell-based, Channel catfish virus (CCV, Ictalurid herpesvirus 1)
Protocol: The CCO cells were infected with the CCV at 10^3 TCID50/ml at 28°C for 1 h. Then, the cell culture medium was replaced using isopycnic DMEM medium containing various concentrations kaempferol (2.5, 5, 7.5, 10, 12.5, and 15 μg/mL). The cells without exposure to kaempferol and CCV were set as the mock control. CCV-infected cells served as a negative control. 24 and 36 h post-infection, the cells were collected and subjected to the RT-qPCR and western blot analysis for the viral gene and protein expression. Meanwhile, the cells were treated as described above for the determination of virus titer. […]
For RT-qPCR, the total RNA was isolated from CCV-infected cells using RnaExTM (Trizol)^a reagent (GENERAY, China), and reversed transcribed applying a HiScript III RT SuperMix with gDNA wiper (Vazyme, China) following the manufacturer’s instructions. Quantitative PCR was performed with a LightCycler 96 Real-Time PCR Detection System (Roche, USA) using ChamQ Universal SYBR qPCR Master Mix (Vazyme, China) with the following cycle conditions: 95°C for 30 s, followed by 40 cycles of 95°C for 10 s and 60°C for 30 s. […] Fold changes of the selected gene vs 18 s (internal reference) were calculated by the 2^−△△Ct method.
Figure 3 The anti-CCV activity by different concentration of kaempferol in vitro. […] The p value was determined by *p < 0.05, **p < 0.01.

[2] = test system: CCO cells; assay: Compounds cytotoxicity assay (CCK-8 cell viability); format: cell-based; conditions: channel catfish, 72 h
Protocol: The cytotoxicity effects of the selected compounds were detected in CCO cells by the cell viability assay. In brief, the CCO cells were seeded in 96-well plates and cultured to reach approximately 90% confluence in each well at 28°C. Subsequently, the monolayer cells were exposed to a maintenance medium with the tested compounds at different concentrations or DMSO for 72 h. Cell Counting Kit-8 (Beyotime, China) was used to measure the cell viability according to the manufacturer’s protocol after 72 h incubation. The optical density at 450 nm was measured using a Spark microplate reader (TECAN, Switzerland). Then, the maximum safe concentration (≥ 90% cell survived, SC90) of compounds to CCO cells was calculated according to the cell viability.
All data were analyzed with GraphPad Prism 8.0. Viral titers were log10 transformed prior to statistical analyses. The SC90 values were calculated using probit analysis. The data are expressed as the arithmetic mean ± standard deviation (SD) and were analyzed by one-way ANOVA with multiple comparisons test. Statistical significance was defined as *p < 0.05, **p < 0.01.
Figure 1 Cytotoxicity assay. The CCO cells were treated with 12 tested compounds with different concentrations in a 96-well plate for 72 h, and then the cell viability was measured by CCK-8. (A) Kaempferol, (B) Tannic acid, (C) P-Coumaric acid, (D) Magnolol, (E) Baicalein, (F) Genistein, (G) Mangiferin, (H) Rosmarinic acid, (I) Artemisinin, (J) Myricetin, (K) Ginkgolic acid, (L) Shikonin. Data represent mean ± SD normalized to values for DMSO treated group. The SC90 was analyzed and calculated using probit analysis. TEXT PRINTED IN THE PICTURE: (A) Kaempferol: SC90 = 47.53 μg/ml | (B) Tannic acid: SC90 = 90.02 μg/ml | (C) P-Coumaric acid: SC90 ≥500 μg/ml | (D) Magnolol: SC90 = 10.02 μg/ml | (E) Baicalein: SC90 = 29.73 μg/ml | (F) Genistein: SC90 = 13.66 μg/ml | (G) Mangiferin: SC90 ≥500 μg/ml | (H) Rosmarinic acid: SC90 = 46.37 μg/ml | (I) Artemisinin: SC90 ≥500 μg/ml | (J) Myricetin: SC90 = 346.19 μg/ml | (K) Ginkgolic acid: SC90 = 10.89 μg/ml | (L) Shikonin: SC90 = 54.44 μg/ml DOUBTS OF THE COPYIST ABOUT THIS PICTURE: All SC90 values are in small print, so 3, 5, 6, 8 and 9 are hard to tell apart / Kaempferol, SC90: 47.53 (5 or 3 uncertain) / Tannic acid, SC90: 90.02 (9 or 8 uncertain) / Baicalein, SC90: 29.73 (9 or 3 uncertain) / Genistein, SC90: 13.66 (3 and 6 uncertain) / Rosmarinic acid, SC90: 46.37 (6 and 3 uncertain) / Myricetin, SC90: 346.19 (3, 6 and 9 uncertain) / Ginkgolic acid, SC90: 10.89 (8 and 9 uncertain) / Shikonin, SC90: 54.44 (5 uncertain) / P-Coumaric acid, Mangiferin, Artemisinin, SC90: sign ≥ or >; 500 (5 uncertain)

[3] = test system: CCV in CCO cells; assay: Virus titration assay (TCID50) after kaempferol treatment; format: cell-based, Channel catfish virus (CCV, Ictalurid herpesvirus 1); conditions: increasing concentration 2.5-15 μg/mL, 24 and 36 h post CCV infection
Protocol: The CCO cells were infected with the CCV at 10^3 TCID50/ml at 28°C for 1 h. Then, the cell culture medium was replaced using isopycnic DMEM medium containing various concentrations kaempferol (2.5, 5, 7.5, 10, 12.5, and 15 μg/mL). The cells without exposure to kaempferol and CCV were set as the mock control. CCV-infected cells served as a negative control. 24 and 36 h post-infection, the cells were collected and subjected to the RT-qPCR and western blot analysis for the viral gene and protein expression. Meanwhile, the cells were treated as described above for the determination of virus titer. The supernatant and cell pellets were collected at 24 and 36 h post-infection and the TCID50 was used to evaluate the viral loads of intracellular and extracellular.
Measurement of viral titer was described previously ([5]). […]
Figure 3 The anti-CCV activity by different concentration of kaempferol in vitro. […] The relative expression levels of the CCV ORF 39 and ORF 59 genes were evaluated by RT-qPCR at 24 h (A) and 36 h (B) post-infection. […] The cells were collected at 24 h (E) and 36 h (F) after infection and CCV ORF 39 and ORF59 proteins and cellular GADPH were analyzed by western blot. (G) The intracellular and released CCV virions separated from cell lysates and supernatants at 24 h and 36 h post infection were analyzed by viral titer. […] The p value was determined by *p < 0.05, **p < 0.01.

Q: `O=c1c(O)c(-c2ccc(O)cc2)oc2cc(O)cc(O)c12` [Kaempferol] was tested. Which “inhibitory effect of CCV-ORF 39 and CCV-ORF 59” value ([1]; 24 h post viral infection, kaempferol 2.5-15 μg/mL, RT-qPCR) did it give?
A: over 85%

Q: What about the “viral mRNA levels compared with the control group” value ([1]; 36 h post viral infection, kaempferol 10 μg/mL to 15 μg/mL) of the same compound?
A: significantly lower

Q: And the “SC90 (maximum safe concentration, ≥ 90% cell survived)” value [2]?
A: 47.53 µg/mL

Q: What about the “intracellular and progeny viral loads (viral titer)” value [3] of the same compound?
A: dramatically reduced
